Assay: mn = molality of the nth substance listed, in mol/kg
Conditions: Liquid, Vibrating tube method

[Br-].[Br-].[Zn+2] [zinc bromide] + CO
Conditions	mass density [kg/m3]
348.24 K, 320 kPa, m1 = 0.05772	749.2
348.24 K, 338 kPa, m1 = 1.951	1012.66
348.24 K, 4981 kPa, m1 = 0.05772	755.32
348.24 K, 4997 kPa, m1 = 1.951	1018.61
348.24 K, 9997 kPa, m1 = 0.05772	761.44
348.24 K, 10010 kPa, m1 = 1.951	1024.67
348.24 K, 14982 kPa, m1 = 0.05772	767.11
348.24 K, 14997 kPa, m1 = 1.951	1030.41
348.24 K, 19995 kPa, m1 = 1.951	1035.89
348.24 K, 20002 kPa, m1 = 0.05772	772.47
348.24 K, 25006 kPa, m1 = 1.951	1041.15
348.24 K, 25019 kPa, m1 = 0.05772	777.52
348.24 K, 29980 kPa, m1 = 1.951	1046.17
348.24 K, 29988 kPa, m1 = 0.05772	782.26
348.24 K, 34988 kPa, m1 = 0.05772	786.8
348.24 K, 34988 kPa, m1 = 1.951	1051.04
348.24 K, 39992 kPa, m1 = 1.951	1055.74
348.24 K, 39996 kPa, m1 = 0.05772	791.14
373.24 K, 509 kPa, m1 = 0.3785	775.13
373.24 K, 510 kPa, m1 = 0.7158	822.07
373.24 K, 4989 kPa, m1 = 0.3785	782.12
373.24 K, 5012 kPa, m1 = 0.7158	828.98
373.24 K, 9999 kPa, m1 = 0.7158	836.05
373.24 K, 10005 kPa, m1 = 0.3785	789.3
373.24 K, 14990 kPa, m1 = 0.7158	842.63
373.24 K, 14993 kPa, m1 = 0.3785	795.89
373.24 K, 19988 kPa, m1 = 0.7158	848.79
373.24 K, 20013 kPa, m1 = 0.3785	802.08
373.24 K, 24986 kPa, m1 = 0.3785	807.84
373.24 K, 25005 kPa, m1 = 0.7158	854.61
373.24 K, 29988 kPa, m1 = 0.3785	813.28
373.24 K, 29996 kPa, m1 = 0.7158	860.06
373.24 K, 35005 kPa, m1 = 0.3785	818.47
373.24 K, 35010 kPa, m1 = 0.7158	865.28
373.24 K, 39999 kPa, m1 = 0.3785	823.36
373.24 K, 40008 kPa, m1 = 0.7158	870.23
373.25 K, 530 kPa, m1 = 0.05772	722.55
373.25 K, 5013 kPa, m1 = 0.05772	729.6
373.25 K, 10010 kPa, m1 = 0.05772	736.76
373.25 K, 14996 kPa, m1 = 0.05772	743.34
373.25 K, 20007 kPa, m1 = 0.05772	749.46
373.25 K, 25002 kPa, m1 = 0.05772	755.2
373.25 K, 29988 kPa, m1 = 0.05772	760.57
373.25 K, 35011 kPa, m1 = 0.05772	765.68
373.25 K, 40009 kPa, m1 = 0.05772	770.5
373.26 K, 510 kPa, m1 = 1.951	982.6
373.26 K, 4981 kPa, m1 = 1.951	989.17
373.26 K, 9999 kPa, m1 = 1.951	996.08
373.26 K, 14998 kPa, m1 = 1.951	1002.57
373.26 K, 19990 kPa, m1 = 1.951	1008.69
373.26 K, 25011 kPa, m1 = 1.951	1014.53
373.26 K, 29987 kPa, m1 = 1.951	1020.09
373.26 K, 34996 kPa, m1 = 1.951	1025.43
373.26 K, 39999 kPa, m1 = 1.951	1030.56
398.25 K, 874 kPa, m1 = 0.7158	791.54
398.25 K, 875 kPa, m1 = 0.3785	744.91
398.25 K, 4997 kPa, m1 = 0.7158	799.23
398.25 K, 5007 kPa, m1 = 0.3785	752.83
398.25 K, 9995 kPa, m1 = 0.7158	807.74
398.25 K, 9997 kPa, m1 = 0.3785	761.43
398.25 K, 14982 kPa, m1 = 0.7158	815.46
398.25 K, 15016 kPa, m1 = 0.3785	769.33
398.25 K, 19995 kPa, m1 = 0.7158	822.66
398.25 K, 19996 kPa, m1 = 0.3785	776.5
398.25 K, 25004 kPa, m1 = 0.7158	829.32
398.25 K, 25013 kPa, m1 = 0.3785	783.19
398.25 K, 29995 kPa, m1 = 0.3785	789.37
398.25 K, 29999 kPa, m1 = 0.7158	835.55
398.25 K, 34983 kPa, m1 = 0.7158	841.37
398.25 K, 34995 kPa, m1 = 0.3785	795.22
398.25 K, 39988 kPa, m1 = 0.7158	846.94
398.25 K, 40001 kPa, m1 = 0.3785	800.74
398.27 K, 890 kPa, m1 = 1.951	951.2
398.27 K, 899 kPa, m1 = 0.05772	692.91
398.27 K, 4987 kPa, m1 = 1.951	958.29
398.27 K, 5013 kPa, m1 = 0.05772	700.92
398.27 K, 9996 kPa, m1 = 1.951	966.33
398.27 K, 10001 kPa, m1 = 0.05772	709.63
398.27 K, 14992 kPa, m1 = 0.05772	717.48
398.27 K, 14992 kPa, m1 = 1.951	973.78
398.27 K, 19995 kPa, m1 = 0.05772	724.66
398.27 K, 20001 kPa, m1 = 1.951	980.78
398.27 K, 24985 kPa, m1 = 0.05772	731.27
398.27 K, 25015 kPa, m1 = 1.951	987.36
398.27 K, 29996 kPa, m1 = 1.951	993.57
398.27 K, 30002 kPa, m1 = 0.05772	737.46
398.27 K, 34980 kPa, m1 = 1.951	999.48
398.27 K, 34994 kPa, m1 = 0.05772	743.23
398.27 K, 39999 kPa, m1 = 0.05772	748.68
398.27 K, 40007 kPa, m1 = 1.951	1005.18

From the NIST ThermoML archive (doi:10.1016/j.jct.2005.02.004)
